Source: publication PMC11091117, “A fluorescently-tagged tick kinin neuropeptide triggers peristalsis and labels tick midgut muscles” (Scientific Reports, 2024)

Experiments:
[1] = test system: vector-only (V/O) CHO-K1 cells; assay: Cellular end-point fluorescence calcium mobilization assay, vector-only control cells; type: cell-based; conditions: 10 µM peptide, Fluo-8, 29 °C, 60 s, 4 technical replicates
Source text: (§1) Three peptides were used in this study. These included: 1) the ligand for the endogenous tick kinin receptor from Rhipicephalus sanguineus, Rhisa-kinin 8 peptide of sequence GTGEDQAFSPWGamide (Rhisa-K-8; RK8; of identical sequence to Rhimi-K-8 in Rhipicephalus microplus)[48], 2) the same peptide but fluorescently labeled at the N-terminus with tetramethylrhodamine (TMR) a red fluorescent dye, designated TMR-Rhisa-K-8 (TMR-RK8), and 3) a labeled peptide synthesized with the scrambled sequence of the kinin ligand, designated TMR-Scrambled. The sequence of TMR-RK8 was TMR-C-GTGEDQAFSPWGamide). The TMR-Scrambled kinin (TMR-C-GTQWGPGFEADSamide) served as a negative control for tissue labeling. […]
A fluorescence-based intracellular calcium mobilization end-point assay described by Xiong, et al.[50] was used to confirm the activity of the TMR-labeled RK8 peptide on a cell line expressing the tick kinin receptor. […] The calcium fluorescence signal was detected by a CLARIOstar (BMG LABTECH, Chicago, IL, United States) plate reader set to read at the fluorescence plate-mode with excitation and emission wavelengths of 490 and 525 nm at 29 °C. Calcium responses were read immediately after the addition of 10 µL of either TMR-RK8, unlabeled RK8, or blank solvent (1% DMSO in HBSS). […]

[2] = test system: vector-only (V/O) CHO-K1 cells; assay: Confocal visualization on live vector-only cells with fluorescently labeled kinin peptide; type: binding; conditions: 10 µM labeled peptide, 1 min, HBSS, confocal Leica SP8
Source text: as §1
The BMLK3 and V/O cells (5000–10,000 cells) were seeded separately in 200 µL selective media onto the two chambers of the cover glass (Lab-Tek Chambered Coverglass, 4.2 cm^2 area, #1.0 German borosilicate glass, sterile, Cat # 155,380, Thermo Fisher Scientific Inc., Walthams, MA) and grown in the incubator overnight at 37 °C and 5% CO2. The next day, cells would be ready for fluorescent labeling: the selective media was replaced with 200 µL HBSS to rinse the cells. […] Images were analyzed and computer-colored using Fiji/ImageJ (National Institutes of Health, Bethesda, MD). […]

[3] = test system: tick kinin receptor (CHO-K1 BMLK3 cells); assay: Fluorescence microscopy validation of labeled peptide specificity on live BMLK3 cells; type: binding, Rhipicephalus microplus
Description: BMLK3 and vector-only cells were cultured in selective media (F-12K medium containing 10% fetal bovine serum and 800 µg/mL-1 of G418 sulfate), cells were seeded in […] (CELLSTAR®, Greiner Bio-One®, Monroe, NC USA) at 20,000 cells per well and were incubated overnight. The next assay, the cell culture medium was removed, and cells were rinsed twice with 200 µl DPBS, and 180 µl of HBSS buffer was added into each well. The peptide stock solutions were prepared in 1% DMSO in HBSS at 100 µM. TMR-RK8 (20 µl) was added into each well and incubated with the cells for 5 min at room temperature. The medium was then removed with a pipette and the cells were rinsed twice with 200 µl HBSS, and DAPI (VECTASHIELD® H-1200, Vector Laboratories) was added (20 µl of 0.15 µg/ml) for visualizing the cell nuclei. Cells were rinsed twice with 200 µl of HBSS, and finally 180 µl HBSS per well was added.
The cells were immediately imaged under a Zeiss Axio Observer® inverted fluorescence microscope. The exposure time for the Bodipy-Tetramethylrhodamine-X (BPTmX) fluorescence channel was the same for BMLK3 cells and V/O cells. DAPI imaging was done subsequently using the same focal height as the BPTmx channel.

TMR-C-GTGEDQAFSPWGamide [TMR-RK8]
calcium fluorescence response of vector-only cells (in words) [1]: invariable background fluorescence
labeling of vector-only cells (in words) [2]: not labeled by either peptide
labeling of BMLK3 cells, Fig. S1 (in words) ([3]; 1 µM TMR-RK8, 5 min at room temperature, HBSS, Zeiss Axio Observer, BPTmX channel): only observed in the BLMK3 cells
receptor visualization across multiple BMLK3 cells (in words) ([3]; Figs. S1 and S2, BMLK3 cells): consistently visualized with TMR-RK8 across multiple BMLK3 cells
